# Reference: patent US20260070945A1, “MACROCYCLIC IMMUNOMODULATORS” (Bristol-Myers Squibb Company, priority 2022, published 2026)
# Where a SMILES comes first, the peptide text is derived from it. Bridges are numbered along the chain shown (N, C = ends). [ ]: non-standard residue; d: D form. The star is where a group is joined. ξ: configuration not given here. Phe(3-CF3) = N[C@@H](Cc1cccc(C(F)(F)F)c1)C(=O)O; Phe(4-COOH) = N[C@@H](Cc1ccc(C(=O)O)cc1)C(=O)O; Bip = N[C@@H](Cc1ccc(-c2ccccc2)cc1)C(=O)O; Phe(4-NH2) = Nc1ccc(C[C@H](N)C(=O)O)cc1; Phe(3-Me) = Cc1cccc(C[C@H](N)C(=O)O)c1; Abu(3S-NH2) = C[C@H](N)[C@H](N)C(=O)O; NH(CH2)12COOH = O=C(O)CCCCCCCCCCCCN*; Val(3-OH) = CC(C)(O)[C@H](N)C(=O)O; hArg = N=C(N)NCCCC[C@H](N)C(=O)O; 4Pal = N[C@@H](Cc1ccncc1)C(=O)O; Cha = N[C@@H](CC1CCCCC1)C(=O)O; Cit = NC(=O)NCCC[C@H](N)C(=O)O; Thr(3ξ) = CC(O)[C@H](N)C(=O)O; Carboxymethyl = O=C(O)C*; NMeA = CN[C@@H](C)C(=O)O; Orn = NCCC[C@H](N)C(=O)O; Aun = NCCCCCCCCCCC(=O)O; Dab = NCC[C@H](N)C(=O)O; Dap = NC[C@H](N)C(=O)O; AEEA = NCCOCCOCC(=O)O
# Target: T1, PD-1/PD-L1 interaction (PE-labeled human PD-L1-Ig binding to Jurkat cell line over-expressing human PD-1) (Homo sapiens, UniProt Q15116)
# T1 construct: expressed in transfected cells; host or cells: Jurkat
# T1 sequence (Q15116 25-288): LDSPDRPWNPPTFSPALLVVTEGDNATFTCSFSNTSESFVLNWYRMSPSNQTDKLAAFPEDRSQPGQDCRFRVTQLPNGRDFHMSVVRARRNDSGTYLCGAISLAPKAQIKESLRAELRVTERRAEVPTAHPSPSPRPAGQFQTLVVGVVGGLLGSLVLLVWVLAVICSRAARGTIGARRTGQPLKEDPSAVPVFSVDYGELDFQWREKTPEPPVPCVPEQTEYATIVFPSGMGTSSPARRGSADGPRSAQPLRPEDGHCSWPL
# Assay: Jurkat-PD-1 Cell Binding High-Content Screening Assay (CBA)
# Settings: Jurkat-hPD-1 cells, PE-labeled PD-L1-Ig 20 nM final; read-out: Jurkat HPD1 PDL1 IC50
# Summary of the method: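 Compound is added first to the PD-1-expressing Jurkat cells and held 2 h at 37 °C in serum-containing DMEM. The fluorescent PD-L1 fusion follows at 20 nM final for 1 h. Fixed, Hoechst-stained cells are then imaged for bound label.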
row,IC50 [nM],Structure (SMILES)
1,39.3,Cc1cccc(C[C@@H]2NC(=O)[C@H](CC(=O)O)NC(=O)[C@H](Cc3ccc(OCC(=O)O)cc3)NC(=O)[C@H](Cc3ccc(N)cc3)NC(=O)CSC[C@@H](C(=O)N[C@@H](CCN)C(=O)NCCCCCCCCCCC(=O)O)NC(=O)[C@H](CO)NC(=O)[C@H](C(C)C)NC(=O)[C@H](CC3CCCCC3)NC(=O)[C@H](CCN)NC(=O)[C@@H](CC(C)C)NC(=O)[C@H](C)N(C)C(=O)[C@H](Cc3ccc(O)cc3)NC(=O)[C@H](Cc3ccc(-c4ccccc4)cc3)NC(=O)[C@H](Cc3ccc(OCC(=O)O)cc3)NC2=O)c1 [Example 1279] ({CH2CO}-[Phe(4-NH2)]Y(Carboxymethyl)D[Phe(3-Me)]Y(Carboxymethyl)[Bip]Y[NMeA][dL][Dab][Cha]VSC[Dab][Aun]-OH; thioether N-14)
2,123,CC(C)C[C@H]1NC(=O)[C@H](C)N(C)C(=O)[C@H](Cc2ccc(OCC(=O)O)cc2)NC(=O)[C@H](Cc2ccc(-c3ccccc3)cc2)NC(=O)[C@H](Cc2ccc(OCC(=O)O)cc2)NC(=O)[C@H](Cc2c[nH]c3ccccc23)NC(=O)[C@H](CC(=O)O)NC(=O)[C@H](Cc2ccc(OCC(=O)O)cc2)NC(=O)[C@H]([C@@H](C)O)NC(=O)CSC[C@@H](C(=O)N[C@@H](CCCN)C(=O)NCCOCCOCC(=O)NCCCCCCCCCCC(=O)O)NC(=O)[C@H](CC(N)=O)NC(=O)[C@H](C(C)C)NC(=O)[C@H](CC2CCCCC2)NC(=O)[C@H](CCN)NC1=O [Example 1397] ({CH2CO}-TY(Carboxymethyl)DWY(Carboxymethyl)[Bip]Y(Carboxymethyl)[NMeA][dL][Dab][Cha]VNC[Orn][AEEA][Aun]-OH; thioether N-14)
3,25.2,Cc1cccc(C[C@@H]2NC(=O)[C@H](CC(=O)O)NC(=O)[C@H](Cc3ccc(OCC(=O)O)cc3)NC(=O)[C@H](C(C)O)NC(=O)CSC[C@@H](C(=O)N[C@@H](CCN)C(=O)NCCOCCOCC(=O)NCCCCCCCCCCC(=O)O)NC(=O)[C@H](Cc3ccc(OCC(=O)O)cc3)NC(=O)[C@H](C(C)C)NC(=O)[C@H](CC3CCCCC3)NC(=O)[C@H](CCN)NC(=O)[C@@H](CC(C)C)NC(=O)[C@H](C)N(C)C(=O)[C@H](Cc3ccc(OCC(=O)O)cc3)NC(=O)[C@H](Cc3ccc(-c4ccccc4)cc3)NC(=O)[C@H](Cc3ccc(C(=O)O)cc3)NC2=O)c1 (stereo partly drawn) [Example 2478] ({CH2CO}-[Thr(3ξ)]Y(Carboxymethyl)D[Phe(3-Me)][Phe(4-COOH)][Bip]Y(Carboxymethyl)[NMeA][dL][Dab][Cha]VY(Carboxymethyl)C[Dab][AEEA][Aun]-OH; thioether N-14)
4,28.9,Cc1cccc(C[C@@H]2NC(=O)[C@H](CC(=O)O)NC(=O)[C@H](Cc3ccc(OCC(=O)O)cc3)NC(=O)[C@H]([C@@H](C)O)NC(=O)CSC[C@@H](C(=O)N[C@@H](CCN)C(=O)NCCOCCOCC(=O)NCCCCCCCCCCC(=O)O)NC(=O)[C@H](CCC(=O)O)NC(=O)[C@H](C(C)(C)O)NC(=O)[C@H](CC3CCCCC3)NC(=O)[C@H](CCN)NC(=O)[C@@H](CC(C)C)NC(=O)[C@H](C)N(C)C(=O)[C@H](Cc3ccc(OCC(=O)O)cc3)NC(=O)[C@H](Cc3ccc(-c4ccccc4)cc3)NC(=O)[C@H](Cc3ccc(OCC(=O)O)cc3)NC2=O)c1 [Example 1408] ({CH2CO}-TY(Carboxymethyl)D[Phe(3-Me)]Y(Carboxymethyl)[Bip]Y(Carboxymethyl)[NMeA][dL][Dab][Cha][Val(3-OH)]EC[Dab][AEEA][Aun]-OH; thioether N-14)
5,23.6,Cc1cccc(C[C@@H]2NC(=O)[C@H](CC(=O)O)NC(=O)[C@H](Cc3ccc(C(=O)O)cc3)NC(=O)[C@H](Cc3ccncc3)NC(=O)CSC[C@@H](C(=O)N[C@@H](CCN)C(=O)NCCOCCOCC(=O)NCCCCCCCCCCC(=O)O)NC(=O)[C@H](CCCN)NC(=O)[C@H](C(C)C)NC(=O)[C@H](CC3CCCCC3)NC(=O)[C@H](CCN)NC(=O)[C@@H](CC(C)C)NC(=O)[C@H](C)N(C)C(=O)[C@H](Cc3ccc(OCC(=O)O)cc3)NC(=O)[C@H](Cc3ccc(-c4ccccc4)cc3)NC(=O)[C@H](Cc3ccc(OCC(=O)O)cc3)NC2=O)c1 [Example 1405] ({CH2CO}-[4Pal][Phe(4-COOH)]D[Phe(3-Me)]Y(Carboxymethyl)[Bip]Y(Carboxymethyl)[NMeA][dL][Dab][Cha]V[Orn]C[Dab][AEEA][Aun]-OH; thioether N-14)

# The remaining lines, values behind:
row,Structure (SMILES),IC50 [nM]
1,Cc1cccc(C[C@@H]2NC(=O)[C@H](CC(=O)O)NC(=O)[C@H](Cc3ccc(C(=O)O)cc3)NC(=O)[C@H](Cc3ccc(OCC(=O)O)cc3)NC(=O)CSC[C@@H](C(=O)NCCCCCCCCCCC(=O)O)NC(=O)[C@H](CCCNC(N)=O)NC(=O)[C@H](C(C)C)NC(=O)[C@H](CC3CCCCC3)NC(=O)[C@H](CCN)NC(=O)[C@@H](CC(C)C)NC(=O)[C@H](C)N(C)C(=O)[C@H](CCC(N)=O)NC(=O)[C@H](Cc3ccc(-c4ccccc4)cc3)NC(=O)[C@H](CC(C)C)NC2=O)c1 [Example 2246] ({CH2CO}-Y(Carboxymethyl)[Phe(4-COOH)]D[Phe(3-Me)]L[Bip]Q[NMeA][dL][Dab][Cha]V[Cit]C[Aun]-OH; thioether N-14),16.1
2,CC(C)C[C@@H]1NC(=O)[C@H](Cc2c[nH]c3ccccc23)NC(=O)[C@H](CC(=O)O)NC(=O)[C@H](Cc2ccncc2)NC(=O)[C@H](Cc2ccc(OCC(=O)O)cc2)NC(=O)CSC[C@@H](C(=O)N[C@@H](CCN)C(=O)NCCOCCOCC(=O)NCCCCCCCCCCC(=O)O)NC(=O)[C@H](CO)NC(=O)[C@H](C(C)C)NC(=O)[C@H](CC2CCCCC2)NC(=O)[C@H](CCN)NC(=O)[C@@H](CC(C)C)NC(=O)[C@H](C)N(C)C(=O)[C@H](C(C)C)NC(=O)[C@H](Cc2ccc(-c3ccccc3)cc2)NC1=O [Example 1089] ({CH2CO}-Y(Carboxymethyl)[4Pal]DWL[Bip]V[NMeA][dL][Dab][Cha]VSC[Dab][AEEA][Aun]-OH; thioether N-14),5.2
3,CC(C)C[C@@H]1NC(=O)[C@H](Cc2c[nH]c3ccccc23)NC(=O)[C@H](CC(=O)O)NC(=O)[C@H](CCCCNC(=N)N)NC(=O)[C@H](Cc2ccc(OCC(=O)O)cc2)NC(=O)CSC[C@@H](C(=O)N[C@@H](CCCN)C(=O)NCCOCCOCC(=O)NCCCCCCCCCCC(=O)O)NC(=O)[C@H](CO)NC(=O)[C@H](C(C)C)NC(=O)[C@H](CC2CCCCC2)NC(=O)[C@H](CCN)NC(=O)[C@@H](CC(C)C)NC(=O)[C@H](C)N(C)C(=O)[C@H](C(C)C)NC(=O)[C@H](Cc2ccc(-c3ccccc3)cc2)NC1=O [Example 2140] ({CH2CO}-Y(Carboxymethyl)[hArg]DWL[Bip]V[NMeA][dL][Dab][Cha]VSC[Orn][AEEA][Aun]-OH; thioether N-14),15.7
4,CC(C)C[C@H]1NC(=O)[C@H](C)N(C)C(=O)[C@H](CCC(N)=O)NC(=O)[C@H](Cc2ccc(-c3ccccc3)cc2)NC(=O)[C@H](Cc2ccc(C(=O)O)cc2)NC(=O)[C@H](Cc2cccc(C(F)(F)F)c2)NC(=O)[C@H](CC(=O)O)NC(=O)[C@H](Cc2ccc(OCC(=O)O)cc2)NC(=O)[C@H]([C@H](C)N)NC(=O)CSC[C@@H](C(=O)N[C@@H](CCN)C(=O)NCCCCCCCCCCCCC(=O)O)NC(=O)[C@H](Cc2c[nH]cn2)NC(=O)[C@H](C(C)(C)O)NC(=O)[C@H](CC2CCCCC2)NC(=O)[C@H](CCN)NC1=O [Example 1192] ({CH2CO}-[Abu(3S-NH2)]Y(Carboxymethyl)D[Phe(3-CF3)][Phe(4-COOH)][Bip]Q[NMeA][dL][Dab][Cha][Val(3-OH)]HC[Dab]-{NH(CH2)12COOH}; thioether N-14),17.5
5,Cc1cccc(C[C@@H]2NC(=O)[C@H](CC(=O)O)NC(=O)[C@H](Cc3ccc(OCC(=O)O)cc3)NC(=O)[C@H](CN)NC(=O)CSC[C@@H](C(=O)N[C@@H](CCN)C(=O)NCCCCCCCCCCC(=O)O)NC(=O)[C@H]([C@@H](C)O)NC(=O)[C@H](C(C)C)NC(=O)[C@H](CC3CCCCC3)NC(=O)[C@H](CCN)NC(=O)[C@@H](CC(C)C)NC(=O)[C@H](C)N(C)C(=O)[C@H](Cc3ccc(OCC(=O)O)cc3)NC(=O)[C@H](Cc3ccc(-c4ccccc4)cc3)NC(=O)[C@H](C(C)C)NC2=O)c1 [Example 1260] ({CH2CO}-[Dap]Y(Carboxymethyl)D[Phe(3-Me)]V[Bip]Y(Carboxymethyl)[NMeA][dL][Dab][Cha]VTC[Dab][Aun]-OH; thioether N-14),10.4

# Same assay, conditions: PE-labeled PD-L1-Ig 20 nM final, Jurkat-hPD-1 cells; read-out: Jurkat HPD1 PDL1 IC50
row,IC50 [nM],Structure (SMILES)
1,69.3,Cc1cccc(C[C@@H]2NC(=O)[C@H](CC(=O)O)NC(=O)[C@H](Cc3ccc(C(=O)O)cc3)NC(=O)[C@H](Cc3ccncc3)NC(=O)CSC[C@@H](C(=O)NCCOCCOCC(=O)NCCCCCCCCCCC(=O)O)NC(=O)[C@H](CO)NC(=O)[C@H](C(C)(C)O)NC(=O)[C@H](CC3CCCCC3)NC(=O)[C@H](CCN)NC(=O)[C@@H](CC(C)C)NC(=O)[C@H](C)N(C)C(=O)[C@H](Cc3ccc(OCC(=O)O)cc3)NC(=O)[C@H](Cc3ccc(-c4ccccc4)cc3)NC(=O)[C@H](Cc3ccc(OCC(=O)O)cc3)NC2=O)c1 [Example 2463] ({CH2CO}-[4Pal][Phe(4-COOH)]D[Phe(3-Me)]Y(Carboxymethyl)[Bip]Y(Carboxymethyl)[NMeA][dL][Dab][Cha][Val(3-OH)]SC[AEEA][Aun]-OH; thioether N-14)
2,4.5,CC(C)C[C@H]1NC(=O)[C@H](C)N(C)C(=O)[C@H](Cc2ccc(C(=O)O)cc2)NC(=O)[C@H](Cc2ccc(-c3ccccc3)cc2)NC(=O)[C@H](Cc2ccc(C(=O)O)cc2)NC(=O)[C@H](Cc2cccc(C(F)(F)F)c2)NC(=O)[C@H](CC(=O)O)NC(=O)[C@H](Cc2ccc(C(=O)O)cc2)NC(=O)[C@H](C(C)O)NC(=O)CSC[C@@H](C(=O)N[C@@H](CCN)C(=O)NCCCCCCCCCCC(=O)O)NC(=O)[C@H](C(C)O)NC(=O)[C@H](C(C)C)NC(=O)[C@H](CC2CCCCC2)NC(=O)[C@H](CCN)NC1=O (stereo partly drawn) [Example 2566] ({CH2CO}-[Thr(3ξ)][Phe(4-COOH)]D[Phe(3-CF3)][Phe(4-COOH)][Bip][Phe(4-COOH)][NMeA][dL][Dab][Cha]V[Thr(3ξ)]C[Dab][Aun]-OH; thioether N-14)
